Source: ChEMBL document CHEMBL1145705, “Flavonoids as inhibitors or enhancers of the cytotoxicity of tumor necrosis factor-alpha in L-929 tumor cells” (J Nat Prod, 1997)
Activity calls are given as the source filed them. The calls are words filed in the database; no cut-off is given here.

How the values were obtained:
[1] = tested on: L929; experiment: Inhibition of recombinant human TNF-alpha-induced cytotoxicity of mouse L929 cells assessed as survivality preincubated for 15 mins before TNFalpha addition measured after 24 hrs by crystal violet staining; type: functional, cell-based
[2] = tested on: L929; experiment: Inhibition of recombinant human TNF-alpha-induced cytotoxicity of mouse L929 cells assessed as survivality preincubated for 15 mins before TNFalpha addition measured after 24 hrs by [methyl-3H]thymidine incorporation assay; type: functional, cell-based
[3] = tested on: L929; experiment: Inhibition of recombinant human TNF-alpha-induced cytotoxicity of mouse L929 cells assessed as survivality treated with drug after 2 hrs of TNFalpha treatment; type: functional, cell-based
[4] = tested on: L929; experiment: Potentiation of recombinant human TNF-alpha-induced cytotoxicity of mouse L929 cells assessed as survivality treated with drug after 2 hrs of TNFalpha treatment; type: functional, cell-based
[5] = tested on: L929; experiment: Potentiation of recombinant human TNF-alpha-induced cytotoxicity of mouse L929 cells assessed as survivality preincubated for 15 mins before TNFalpha addition measured after 24 hrs by crystal violet staining; type: functional, cell-based
[6] = tested on: L929; experiment: Potentiation of recombinant human TNF-alpha-induced cytotoxicity of mouse L929 cells assessed as survivality preincubated for 15 mins before TNFalpha addition measured after 24 hrs by [methyl-3H]thymidine incorporation assay; type: functional, cell-based
[7] = tested on: L929; experiment: Cytotoxicity against mouse L929 cells at 1 uM preincubated for 15 mins before TNFalpha addition measured after 24 hrs by crystal violet staining; type: cell-based; conditions: l929, 24 h
[8] = tested on: L929; experiment: Cytotoxicity against mouse L929 cells at 1 uM preincubated for 15 mins before TNFalpha addition measured after 24 hrs by [methyl-3H]thymidine incorporation assay; type: cell-based; conditions: l929, 24 h
[9] = tested on: L929; experiment: Potentiation of recombinant human TNF-alpha-induced cytotoxicity of mouse L929 cells assessed as survivality at 250 uM preincubated for 15 mins before TNFalpha addition measured after 24 hrs by crystal violet staining; type: functional
[10] = tested on: L929; experiment: Potentiation of recombinant human TNF-alpha-induced cytotoxicity of mouse L929 cells assessed as survivality at 250 uM preincubated for 15 mins before TNFalpha addition measured after 24 hrs by [methyl-3H]thymidine incorporation assay; type: functional

SMILES | EC50 [1] [µM] | EC50 [2] [µM] | Activity [3] | Activity [4] | Activity [1] | other results
CC(Cc1ccc(O)c(O)c1)C(C)Cc1ccc(O)c(O)c1 (configuration not stated) [NORDIHYDROGUAIARETIC ACID] | 28 | 19 |  |  |  | 
O=c1c(O)c(-c2ccc(O)cc2O)oc2cc(O)cc(O)c12 [MORIN] | 120 | 115 | Active | Active | Dose-dependent effect | 
O=C1c2c(O)cc(O)cc2O[C@H](c2ccc(O)c(O)c2)[C@H]1O [(+)-TAXIFOLIN] | 200 | 240 |  |  |  | 
O=C1C[C@@H](c2ccc(O)c(O)c2)Oc2cc(O)cc(O)c21 [ERIODICTYOL] | 4 | 6 |  |  |  | 
O=c1c(O)c(-c2ccccc2)oc2cc(O)cc(O)c12 [GALANGIN] | 40 | 50 | Active | Active | Dose-dependent effect | 
O=c1cc(-c2ccccc2)oc2cc(O)cc(O)c12 |  |  |  |  |  | Activity [5]: Active; Activity [6]: Active
O=c1cc(-c2ccc(O)c(O)c2)oc2cc(O)cc(O)c12 [LUTEOLIN] | > 250 | > 250 |  |  |  | 
O=c1cc(-c2ccc(O)cc2)oc2cc(O)cc(O)c12 |  |  |  |  |  | Activity [5]: Active; Activity [6]: Active
O=c1c(O)c(-c2cc(O)c(O)c(O)c2)oc2cc(O)cc(O)c12 [MYRICETIN] | 55 | 59 | Active | Active | Dose-dependent effect | 
Oc1cc(O)c2c(c1)O[C@H](c1ccc(O)c(O)c1)[C@H](O)C2 [(-)-EPICATECHIN] | 300 | 350 |  |  |  | 
O=c1c(O)c(-c2ccc(O)c(O)c2)oc2cc(O)cc(O)c12 [QUERCETIN] | 20 | 26 | Active | Active | Dose-dependent effect | 
O=c1c(O)c(-c2ccc(O)cc2)oc2cc(O)cc(O)c12 [KAEMPFEROL] | 20 | 25 | Active | Active | Dose-dependent effect | 
CN[C@@H]1C[C@H]2O[C@@](C)([C@@H]1OC)n1c3ccccc3c3c4c(c5c6ccccc6n2c5c31)C(=O)NC4 [STAUROSPORINE] |  |  |  |  |  | Activity [7]: Toxic; Activity [8]: Toxic; Activity [5]: Dose-dependent effect; Activity [6]: Dose-dependent effect
C[C@@H]1O[C@@H](OC[C@H]2O[C@@H](Oc3c(-c4ccc(O)c(O)c4)oc4cc(O)cc(O)c4c3=O)[C@H](O)[C@@H](O)[C@@H]2O)[C@H](O)[C@H](O)[C@H]1O [RUTIN] | 250 | > 250 | Active | Active | Dose-dependent effect | 
COc1ccc(-c2oc3cc(O)cc(O)c3c(=O)c2O)cc1 [KAEMPFERIDE] | 129 | 140 | Active | Active | Dose-dependent effect | 
O=C1C[C@@H](c2ccc(O)cc2)Oc2cc(O)cc(O)c21 [NARINGENIN] |  |  |  |  |  | Activity [9]: 25%; Activity [10]: 31%; Activity [5]: Active; Activity [6]: Active
